# Patent US20100256206A1, “CRYSTALLINE FORM B OF OLMESARTAN MEDOXOMIL” (priority 2007, published 2010)
# How the values were obtained:
# [1] = cited from earlier work
# [2] = Thermo-Gravimetric Analysis (TGA) of the powder; type: physicochemical; conditions: at processing temperatures and storage temperatures; TGA 25-300° C. @ 5° C./min
# Protocol: The powder obtained by the process according to the invention as described above and in the following examples was also subjected to Thermo-Gravimetric Analysis (TGA). […] Indeed, the DSC and XRPD experiments indicate that no polymorphic transition of crystalline form B occurs up to temperatures of ca. 170° C.
# The TGA analysis data was obtained using a Mettler-Toledo TGA851e apparatus under the following parameters:
# Temperature profile: 25-300° C. @ 5° C./min
# Nitrogen purge gas, 50 ml/min
# Aluminium pan, […], pierced prior to scan
# [3] = DSC and XRPD experiments, polymorphic transition; type: physicochemical
# Protocol: The X-ray powder diffraction data was obtained by methods known in the art using a Bruker D8 Advance Powder Diffractometer with scintillation detector under the following parameters: Reflection mode Cu Kα radiation (1.5406 Å) Scanning range: 2-50 °2θ Step size: 0.02 °2θ Time per step: 2 s The powder obtained by the process according to the invention as described above and in the following examples was also subjected to Differential Scanning Calorimetry (DSC). The DSC thermal analysis data was obtained using a Mettler-Toledo DSC821e apparatus under the following parameters: • Temperature profile: 25-300° C. @ 5° C./min • Nitrogen purge gas, 50 ml/min • Aluminium pan, […], pierced prior to scan The powder obtained by the process according to the invention as described above and in the following examples was also subjected to Thermo-Gravimetric Analysis (TGA). […] Indeed, the DSC and XRPD experiments indicate that no polymorphic transition of crystalline form B occurs up to temperatures of ca. 170° C.
"chemical stability, degradation by conversion to other polymorphic forms [2]",temperature up to which no polymorphic transition occurs [3],SMILES,aqueous solubility [1]
–,–,"CCCc1nc(C(C)(C)O)c(C(=O)OCc2oc(=O)oc2C)n1Cc1ccc(-c2ccccc2-c2nnn[nH]2)cc1 [Olmesartan medoxomil, 2,3-dihydroxy-2-butenyl 4-(1-hydroxy-1-methylethyl)-2-propyl-1-[p-(o-tetrazol-5-yl-phenyl)benzyl]imidazole-5-carboxylate cyclic 2,3-carbonate]",very low
chemically stable,ca. 170 °C,"CCCc1nc(C(C)(C)O)c(C(=O)OCc2oc(=O)oc2C)n1Cc1ccc(-c2ccccc2-c2nnn[nH]2)cc1 [crystalline form B, 2,3-dihydroxy-2-butenyl 4-(1-hydroxy-1-methylethyl)-2-propyl-1-[p-(o-tetrazol-5-yl-phenyl)benzyl]imidazole-5-carboxylate cyclic 2,3-carbonate]",–
